Activity calls are given as the source filed them. The rule behind the calls is not given here.
How the values were obtained:
[1] = target: T1, Heat shock protein HSP 90-alpha (Homo sapiens, UniProt P07900); test: Inhibition of 6x-His tagged human recombinant full length Hsp90alpha ATPase preincubated for 0.5 hrs followed by ATP addition measured after 30 mins by HTRF assay
[2] = system: SK-BR-3; test: Induction of apoptosis in human SK-BR-3 cells assessed as increase in caspase activity after 48 hrs by fluorimetric assay; format: functional, cell-based
[3] = system: SK-BR-3; test: Induction of apoptosis in human SK-BR-3 cells assessed as late apoptotic cells at 1 uM after 48 hrs by annexin v/PI-staining based flow cytometry (reference value: 6.2%); format: functional
[4] = system: SK-BR-3; test: Induction of apoptosis in human SK-BR-3 cells assessed as apoptotic body formation at 0.25 to 1 uM after 48 hrs by DAPI staining-based fluorescence analysis; format: functional, cell-based
[5] = system: A549; test: Antiproliferative activity against human A549 cells assessed as growth inhibition by MTT assay; format: functional, cell-based
[6] = target: T1, Heat shock protein HSP 90-alpha; test: Binding affinity to human recombinant full length Hsp90alpha assessed as change in melting temperature at 500 uM by fluorescence assay
[7] = system: SK-BR-3; test: Induction of apoptosis in human SK-BR-3 cells assessed as early apoptotic cells at 0.25 uM after 48 hrs by annexin v/PI-staining based flow cytometry (reference value: 3.3%); format: functional
[8] = system: HT-29; test: Antiproliferative activity against human HT-29 cells assessed as growth inhibition by MTT assay; format: functional, cell-based
[9] = system: SK-BR-3; test: Induction of apoptosis in human SK-BR-3 cells assessed as early apoptotic cells at 1 uM after 48 hrs by annexin v/PI-staining based flow cytometry (reference value: 3.3%); format: functional
[10] = target: T2, Heat shock protein HSP90 (Homo sapiens) (UniProt P07900+P08238); test: Inhibition of Hsp90 in HUVEC assessed as repression of 1% hypoxia-induced […] mRNA expression at 0.1 uM measured over 8 hrs by RT-PCR analysis; format: cell-based
[11] = system: PC-3; test: Antiproliferative activity against human PC3 cells assessed as growth inhibition by MTT assay; format: functional, cell-based
[12] = target: T2, Heat shock protein HSP90 (Homo sapiens); test: Inhibition of Hsp90 in HUVEC assessed as downregulation of 1% hypoxia-induced HIF-1alpha expression measured over 8 hrs by Western blot analysis; format: cell-based
[13] = system: SK-BR-3; test: Induction of apoptosis in human SK-BR-3 cells assessed as nuclear condensation at 0.25 to 1 uM after 48 hrs by DAPI staining-based fluorescence analysis; format: functional, cell-based
[14] = system: SK-BR-3; test: Induction of apoptosis in human SK-BR-3 cells assessed as dead cells at 0.5 uM after 48 hrs by annexin v/PI-staining based flow cytometry (Rvb =1.3%); format: functional
[15] = system: SK-BR-3; test: Induction of apoptosis in human SK-BR-3 cells assessed as early apoptotic cells at 0.5 uM after 48 hrs by annexin v/PI-staining based flow cytometry (reference value: 3.3%); format: functional
[16] = target: T2, Heat shock protein HSP90 (Homo sapiens); test: Inhibition of Hsp90 in HUVEC assessed as repression of 1% hypoxia-induced Glut1 mRNA expression at 0.1 uM measured over 8 hrs by RT-PCR analysis; format: cell-based
[17] = target: T2, Heat shock protein HSP90 (Homo sapiens); test: Inhibition of Hsp90 in human SK-BR-3 cells assessed as downregulation of ERK1/2 after 24 hrs by Western blot analysis; format: cell-based
[18] = target: T2, Heat shock protein HSP90 (Homo sapiens); test: Inhibition of Hsp90 in human SK-BR-3 cells assessed as upregulation of Hsp70 at 0.02 to 0.2 uM after 24 hrs by Western blot analysis; format: cell-based
[19] = system: HepG2; test: Antiproliferative activity against human HepG2 cells assessed as growth inhibition by MTT assay; format: functional, cell-based
[20] = target: T1, Heat shock protein HSP 90-alpha; test: Binding affinity to human recombinant full length Hsp90alpha assessed as change in melting temperature at 250 uM by fluorescence assay
[21] = system: SK-BR-3; test: Induction of apoptosis in human SK-BR-3 cells assessed as live cells at 0.5 uM after 48 hrs by annexin v/PI-staining based flow cytometry (reference value: 89.2%); format: functional
[22] = system: SK-BR-3; test: Induction of apoptosis in human SK-BR-3 cells assessed as dead cells at 1 uM after 48 hrs by annexin v/PI-staining based flow cytometry (Rvb =1.3%); format: functional
[23] = system: SK-BR-3; test: Induction of cell morphological changes in human SK-BR-3 cells assessed as cell distortion at 0.25 to 1 uM after 48 hrs by DAPI staining-based fluorescence analysis; format: functional
[24] = target: T2, Heat shock protein HSP90 (Homo sapiens); test: Inhibition of Hsp90 in HUVEC assessed as repression of 1% hypoxia-induced VEGF mRNA expression at 0.1 uM measured over 8 hrs by RT-PCR analysis; format: cell-based
[25] = system: SK-BR-3; test: Induction of apoptosis in human SK-BR-3 cells assessed as early apoptotic cells after 48 hrs by annexin v/PI-staining based flow cytometry (reference value: 3.3%); format: functional, cell-based
[26] = system: HUVEC; test: Antiangiogenic activity against HUVEC assessed as inhibition of VEGF-induced cell migration incubated for 24 hrs by wound healing assay; format: functional, cell-based; details: Homo sapiens
[27] = system: SK-BR-3; test: Induction of apoptosis in human SK-BR-3 cells after 48 hrs by annexin V/PI-staining based flow cytometry; format: functional, cell-based
[28] = target: T1, Heat shock protein HSP 90-alpha; test: Binding affinity to human recombinant full length Hsp90alpha assessed as change in melting temperature at 1 mM by fluorescence assay
[29] = system: SK-BR-3; test: Induction of apoptosis in human SK-BR-3 cells assessed as dead cells at 0.25 uM after 48 hrs by annexin v/PI-staining based flow cytometry (Rvb =1.3%); format: functional
[30] = target: T1, Heat shock protein HSP 90-alpha; test: Binding affinity to human recombinant full length biotinylated Hsp90alpha assessed as equilibrium dissociation constants by biolayer interferometric analysis
[31] = system: SK-BR-3; test: Induction of apoptosis in human SK-BR-3 cells assessed as live cells at 0.25 uM after 48 hrs by annexin v/PI-staining based flow cytometry (reference value: 89.2%); format: functional
[32] = system: SK-BR-3; test: Induction of apoptosis in human SK-BR-3 cells assessed as live cells at 1 uM after 48 hrs by annexin v/PI-staining based flow cytometry (reference value: 89.2%); format: functional
[33] = system: HUVEC; test: Antiangiogenic activity against inactivated HUVEC assessed as inhibition of tube formation at 0.25 uM incubated for 6 hrs by matrigel assay; format: functional, cell-based; details: Homo sapiens
[34] = system: SK-BR-3; test: Induction of cell morphological changes in human SK-BR-3 cells assessed as cell membrane blebbing at 0.25 to 1 uM after 48 hrs by DAPI staining-based fluorescence analysis; format: functional
[35] = system: SK-BR-3; test: Antiproliferative activity against human SK-BR-3 cells assessed as growth inhibition by MTT assay; format: functional, cell-based
[36] = system: SK-BR-3; test: Induction of apoptosis in human SK-BR-3 cells assessed as dead cells after 48 hrs by annexin v/PI-staining based flow cytometry (Rvb =1.3%); format: functional, cell-based
[37] = system: SK-BR-3; test: Induction of apoptosis in human SK-BR-3 cells assessed as late apoptotic cells at 0.5 uM after 48 hrs by annexin v/PI-staining based flow cytometry (reference value: 6.2%); format: functional
[38] = system: SK-BR-3; test: Induction of apoptosis in human SK-BR-3 cells assessed as live cells after 48 hrs by annexin v/PI-staining based flow cytometry (reference value: 89.2%); format: functional, cell-based
[39] = system: SK-BR-3; test: Induction of apoptosis in human SK-BR-3 cells assessed as late apoptotic cells at 0.25 uM after 48 hrs by annexin v/PI-staining based flow cytometry (reference value: 6.2%); format: functional
[40] = system: SK-BR-3; test: Induction of cell morphological changes in human SK-BR-3 cells assessed as cell shrinkage at 0.25 to 1 uM after 48 hrs by DAPI staining-based fluorescence analysis; format: functional
[41] = system: MCF7; test: Antiproliferative activity against human MCF7 cells assessed as growth inhibition by MTT assay; format: functional, cell-based
[42] = target: T2, Heat shock protein HSP90 (Homo sapiens); test: Inhibition of Hsp90 in human SK-BR-3 cells assessed as downregulation of Akt after 24 hrs by Western blot analysis; format: cell-based
[43] = system: SK-BR-3; test: Induction of apoptosis in human SK-BR-3 cells assessed as late apoptotic cells after 48 hrs by annexin v/PI-staining based flow cytometry (reference value: 6.2%); format: functional, cell-based
[44] = target: T1, Heat shock protein HSP 90-alpha; test: Binding affinity to human recombinant full length Hsp90alpha assessed as change in melting temperature at 125 uM by fluorescence assay

CC(C)=CCC12OC(C)(C)C3CC(C=C4C(=O)c5c(O)cc(O)cc5OC431)C2=O (configuration not stated)
IC50 [1]: 22.4 µM

CC(C)=CCC12OC(C)(C)C3CC(C=C4C(=O)c5c(O)cccc5OC431)C2=O (configuration not stated)
IC50 [1]: 15.5 µM

COc1cccc2c1C(=O)C1=CC3CC4COC(CC=C(C)C)(C3=O)C14O2 (configuration not stated)
IC50 [1]: 54.7 µM

C/C(=C\CC12OCC3CC(C1=O)C1OC14C(=O)c1c(O)cccc1OC324)CC(=O)O (configuration not stated)
IC50 [1]: 43 µM

CC(C)=CCC12OCC3CC(C=C4C(=O)c5c(O)cccc5OC431)C2=O (configuration not stated)
IC50 [1]: 14.3 µM

CC(C)=CCC12OCC3CC(C=C4C(=O)c5ccccc5OC431)C2=O (configuration not stated)
IC50 [1]: 35.2 µM

COc1cccc2c1C(=O)C1=CC3CC4C(C)(C)OC(CC=C(C)C)(C3=O)C14O2 (configuration not stated)
IC50 [1]: 76.8 µM

CC(=O)Oc1cccc2c1C(=O)C1=CC3CC4COC(CC=C(C)C)(C3=O)C14O2 (configuration not stated)
IC50 [1]: 52.7 µM

C/C(=C\CC12OCC3CC(C1=O)C1OC14C(=O)c1c(O)cccc1OC324)CC=O (configuration not stated)
IC50 [1]: 36.6 µM

C=CCC12OCC3CC(C=C4C(=O)c5ccccc5OC431)C2=O (configuration not stated)
IC50 [1]: 28 µM

C/C(=C\CC12OCC3CC(C=C4C(=O)c5c(O)cccc5OC431)C2=O)CO (configuration not stated)
Activity [2]: Dose-dependent effect | Activity [3]: 35.7% | Activity [4]: Active | IC50 [5]: 3.25 µM | ΔTm [6]: 2.12 °C | Activity [7]: 7.5% | IC50 [8]: 3.02 µM | Activity [9]: 8.6% | inhibition [10]: Active | IC50 [11]: 2.16 µM | inhibition [12]: Dose-dependent effect | Activity [13]: Active | Activity [14]: 2.35% | Activity [15]: 16.65% | inhibition [16]: Active | inhibition [17]: Dose-dependent effect | inhibition [18]: inactive | IC50 [19]: 3.34 µM | ΔTm [20]: 1.64 °C | Activity [21]: 59.58% | Activity [22]: 5.7% | Activity [23]: Active | inhibition [24]: Active | Activity [25]: Dose-dependent effect | Activity [26]: Dose-dependent effect | Activity [27]: Dose-dependent effect | IC50 [1]: 3.68 µM | ΔTm [28]: 4.7 °C | Activity [29]: 0.95% | Kd [30]: 38 µM | Activity [31]: 78.15% | Activity [32]: 50% | inhibition [33]: Active | Activity [34]: Active | IC50 [35]: 1.92 µM | Activity [36]: Dose-dependent effect | Activity [37]: 21.45% | Activity [38]: Dose-dependent effect | Activity [39]: 13.4% | Activity [40]: Active | IC50 [41]: 2.89 µM | inhibition [42]: Dose-dependent effect | Activity [43]: Dose-dependent effect | ΔTm [44]: 0.95 °C

C=CCC12OCC3CC(C=C4C(=O)c5c(O)cccc5OC431)C2=O (configuration not stated)
IC50 [1]: 8.52 µM

CC(C)=CCC12OC(C)(C)C3CC(C=C4C(=O)c5ccccc5OC431)C2=O (configuration not stated)
IC50 [1]: 23.9 µM

CC(C)=CCC[C@]1(C)C=Cc2c(O)c3c(c(CC=C(C)C)c2O1)O[C@]12C(=C[C@@H]4C[C@H]1C(C)(C)O[C@@]2(C/C=C(/C)C(=O)O)C4=O)C3=O [GAMBOGIC ACID]
IC50 [5]: 1.2 µM | IC50 [8]: 2.37 µM | IC50 [11]: 1.19 µM | IC50 [19]: 2.19 µM | IC50 [1]: 22 µM | IC50 [35]: 0.89 µM | IC50 [41]: 1.25 µM

C/C(=C\CC12OC(C)(C)C3CC(C=C4C(=O)c5c(O)cccc5OC431)C2=O)CC=O (configuration not stated)
IC50 [1]: 22.6 µM

CCOC(=O)COc1cccc2c1C(=O)C1=CC3CC4C(C)(C)OC(CC=C(C)C)(C3=O)C14O2 (configuration not stated)
IC50 [1]: 89.8 µM

CC(C)=CCC12OC(C)(C)C3CC(C=C4C(=O)c5c(OCC(=O)O)cccc5OC431)C2=O (configuration not stated)
IC50 [1]: > 100 µM

C/C(=C\CC12OC(C)(C)C3CC(C=C4C(=O)c5c(O)cccc5OC431)C2=O)CCl (configuration not stated)
IC50 [1]: 15.3 µM

CC(C)=CCC12OC(C)(C)C3CC(C=C4C(=O)c5c(cccc5OS(C)(=O)=O)OC431)C2=O (configuration not stated)
IC50 [1]: 67.1 µM

C/C(=C\CC12OC(C)(C)C3CC(C=C4C(=O)c5c(O)cccc5OC431)C2=O)CO (configuration not stated)
IC50 [1]: 27.3 µM

C/C(=C\CC12OCC3CC(C=C4C(=O)c5c(O)cccc5OC431)C2=O)CCl (configuration not stated)
IC50 [1]: 6.2 µM

CC(C)=CCC12OCC3CC(C=C4C(=O)c5c(cccc5OS(C)(=O)=O)OC431)C2=O (configuration not stated)
IC50 [1]: 13.6 µM

CC(=O)Oc1cccc2c1C(=O)C1=CC3CC4C(C)(C)OC(CC=C(C)C)(C3=O)C14O2 (configuration not stated)
IC50 [1]: 42.4 µM
